Source: ChEMBL document CHEMBL1201862, “PubChem BioAssay data set” (2004)
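Test compounds were applied to cells in 96-well plates for 48 hours at 5 doses. The concentration for 50% growth inhibition is given as GI50.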 Activity calls are given as the source filed them. Cut-off read from the data, not from the text of the source: active = GI50 up to about 1.1 µM and inactive = higher.

What was measured:
Assay in all cases: inhibition of tumour cell growth, NCI panel, 48 h
OVCAR-4 = tested on: OVCAR-4
EKVX = tested on: EKVX
HOP-62 = tested on: HOP-62
A549 = tested on: A549
HCC 2998 = tested on: HCC 2998
COLO 205 = tested on: COLO 205
NCI-H23 = tested on: NCI-H23
UO-31 = tested on: UO-31
UACC-257 = tested on: UACC-257
SW-620 = tested on: SW-620
RPMI-8226 = tested on: RPMI-8226
SK-MEL-28 = tested on: SK-MEL-28
M14 = tested on: M14
HL-60 = tested on: HL-60
A498 = tested on: A498
RXF 393 = tested on: RXF 393
NCI-H522 = tested on: NCI-H522

Measured: GI50

Cc1cc(Cl)ccc1NC1=NC(=O)C(CC(=O)Nc2ccc(Cl)cc2Cl)S1 (centres undefined)
inactive: OVCAR-4 > 100 µM | EKVX > 100 µM | HOP-62 > 100 µM | A549 > 100 µM | HCC 2998 > 100 µM | COLO 205 > 100 µM | NCI-H23 > 100 µM | UO-31 > 100 µM | UACC-257 > 100 µM | SW-620 > 100 µM | RPMI-8226 > 100 µM | SK-MEL-28 > 100 µM | M14 > 100 µM

O=[N+]([O-])c1cc(-c2nnc(S)[nH]2)ccc1O
inactive: OVCAR-4 > 100 µM | EKVX > 100 µM | HOP-62 > 100 µM | A549 > 100 µM | HCC 2998 > 100 µM | COLO 205 20.1 µM | NCI-H23 > 100 µM | UO-31 > 100 µM | HL-60 > 100 µM | UACC-257 > 100 µM | SW-620 4.06 µM | A498 > 100 µM | RXF 393 > 100 µM | SK-MEL-28 > 100 µM | M14 > 100 µM

COC(=O)C1=CCON(c2ccccc2)C1c1ccccc1 (centres undefined)
inactive: OVCAR-4 > 10 µM | EKVX 42.1 µM | HOP-62 > 100 µM | A549 40.2 µM | NCI-H522 20.7 µM | HCC 2998 65.5 µM | COLO 205 65.8 µM | NCI-H23 33.2 µM | UO-31 36.1 µM | HL-60 24.9 µM | SW-620 70.5 µM | RXF 393 48 µM | RPMI-8226 29.2 µM | SK-MEL-28 43.5 µM | M14 32.2 µM

COc1cc(NCC(C#N)C#N)ccc1/N=N/c1ccc(Cl)cc1
inactive: OVCAR-4 37.1 µM | EKVX 21.1 µM | HOP-62 19.9 µM | A549 33.4 µM | NCI-H522 16.6 µM | HCC 2998 19.7 µM | COLO 205 17.7 µM | NCI-H23 23.8 µM | UO-31 16.9 µM | SW-620 20.8 µM | A498 44.7 µM | RXF 393 43.6 µM | RPMI-8226 28.6 µM | SK-MEL-28 27.2 µM | M14 16.4 µM

CC(C)C1CNC2N1C(=O)C2(C)OCc1ccccc1 (centres undefined)
inactive: OVCAR-4 > 100 µM | EKVX > 100 µM | HOP-62 > 100 µM | A549 > 100 µM | HCC 2998 > 100 µM | COLO 205 > 100 µM | NCI-H23 > 100 µM | UO-31 81.5 µM | HL-60 > 100 µM | UACC-257 > 100 µM | SW-620 > 100 µM | A498 > 100 µM | RXF 393 > 100 µM | RPMI-8226 91.2 µM | SK-MEL-28 > 100 µM | M14 > 100 µM
